Laboratory results published in patent US11046658B2, “Aminopyrazine derivatives as PI3K-γ inhibitors” (Incyte Corporation, priority 2018, dated 2021).
Structures can show the parent of a compound that is named as a salt. Where two headings read alike, the source gives them in different places. Values belong to the compound of their own block, whether it stands above or below them.

Columns and labels:
[1] = target: PI3Kγ (p110γ) Recombinant Human Protein (Homo sapiens (Human), UniProt P48736); test: PI3K-γ Scintillation Proximity Assay; type: biochemical; settings: 2 μM ATP, 20 μM PIP2
Chain of PI3Kγ (p110γ) Recombinant Human Protein (P48736 whole entry): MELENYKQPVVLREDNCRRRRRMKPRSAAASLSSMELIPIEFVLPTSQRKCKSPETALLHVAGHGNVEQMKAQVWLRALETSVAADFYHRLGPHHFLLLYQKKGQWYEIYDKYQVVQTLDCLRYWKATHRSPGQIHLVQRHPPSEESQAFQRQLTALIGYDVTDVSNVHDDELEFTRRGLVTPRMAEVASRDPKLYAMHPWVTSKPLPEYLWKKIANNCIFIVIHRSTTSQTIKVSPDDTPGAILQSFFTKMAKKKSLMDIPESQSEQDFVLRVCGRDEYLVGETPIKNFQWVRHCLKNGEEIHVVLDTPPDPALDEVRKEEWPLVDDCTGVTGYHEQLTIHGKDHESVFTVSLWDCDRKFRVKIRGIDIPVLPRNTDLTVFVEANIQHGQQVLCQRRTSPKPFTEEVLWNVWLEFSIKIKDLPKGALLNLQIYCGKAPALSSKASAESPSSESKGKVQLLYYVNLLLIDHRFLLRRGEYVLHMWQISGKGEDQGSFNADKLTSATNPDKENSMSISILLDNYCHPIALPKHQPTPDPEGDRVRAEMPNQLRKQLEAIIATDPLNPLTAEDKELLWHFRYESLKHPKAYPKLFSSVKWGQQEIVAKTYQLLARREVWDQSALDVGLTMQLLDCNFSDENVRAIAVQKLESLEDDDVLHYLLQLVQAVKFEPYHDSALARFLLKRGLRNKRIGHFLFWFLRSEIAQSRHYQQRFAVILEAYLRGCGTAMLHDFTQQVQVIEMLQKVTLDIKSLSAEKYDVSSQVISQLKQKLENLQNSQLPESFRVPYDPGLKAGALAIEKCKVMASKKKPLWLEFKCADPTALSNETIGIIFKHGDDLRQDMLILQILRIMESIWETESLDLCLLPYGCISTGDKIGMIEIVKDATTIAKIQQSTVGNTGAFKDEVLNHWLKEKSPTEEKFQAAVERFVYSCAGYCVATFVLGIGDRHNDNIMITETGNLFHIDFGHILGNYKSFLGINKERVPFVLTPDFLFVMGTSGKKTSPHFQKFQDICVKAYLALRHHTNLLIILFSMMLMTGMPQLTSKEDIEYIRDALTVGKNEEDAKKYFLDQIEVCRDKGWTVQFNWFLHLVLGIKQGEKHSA
Excerpt: (§1) Materials: [γ-^33P]ATP (10 mCi/mL) and Wheat Germ Agglutinin (WGA) YSi SPA Scintillation Beads was purchased from Perkin Elmer (Waltham, Mass.). Lipid kinase substrate, D-myo-Phosphatidylinositol 4,5-bisphosphate (PtdIns(4,5)P2)D (+)-sn-1,2-di-O-octanoylglyceryl, 3-O-phospho linked (PIP2), CAS 204858-53-7, was purchased from Echelon Biosciences (Salt Lake City, Utah). PI3Kγ (p110γ) Recombinant Human Protein was purchased from Life technology (Grand Island, N.Y.). ATP, MgCl2, DTT, EDTA, MOPS and CHAPS were purchased from Sigma Aldrich (St. Louis, Mo.).
(§2) The kinase reaction was conducted in polystyrene 384-well Greiner Bio-one white plate from Thermo Fisher Scientific in a final volume of 25 μL. Inhibitors were first diluted serially in DMSO and added to the plate wells before the addition of other reaction components. The final concentration of DMSO in the assay was 2%. The PI3Kγ assay was carried out at room temperature in 20 mM MOPS, pH 6.7, 10 mM MgCl2, 5 mM DTT and CHAPS 0.03%. Reactions were initiated by the addition of ATP, the final reaction mixture consisted of 20 μM PIP2, 2 μM ATP, 0.5 μCi [γ-^33P] ATP, 13 nM PI3Kγ. Reactions were incubated for 120 min and terminated by the addition of 40 μL SPA beads suspended in quench buffer: 163 mM potassium phosphate pH 7.8, 20% glycerol, 25 mM EDTA. The final concentration of SPA beads is 1.0 mg/mL. After the plate sealing, plates were shaken overnight at room temperature and centrifuged at 1500 rpm for 10 min, the radioactivity of the product was determined by scintillation counting on Topcount (Perkin-Elmer). IC50 determination was performed by fitting the curve of percent of the solvent control activity versus the log of the inhibitor concentration using the GraphPad Prism 6.0 software.

[2] = target: PI3Kδ (p110δ/p85α) Recombinant Human Protein (Homo sapiens (Human), UniProt O00329); test: PI3Kδ Scintillation Proximity Assay; type: biochemical; settings: 2 μM ATP, 20 μM PIP2
Chain of PI3Kδ (p110δ/p85α) Recombinant Human Protein (O00329 whole entry): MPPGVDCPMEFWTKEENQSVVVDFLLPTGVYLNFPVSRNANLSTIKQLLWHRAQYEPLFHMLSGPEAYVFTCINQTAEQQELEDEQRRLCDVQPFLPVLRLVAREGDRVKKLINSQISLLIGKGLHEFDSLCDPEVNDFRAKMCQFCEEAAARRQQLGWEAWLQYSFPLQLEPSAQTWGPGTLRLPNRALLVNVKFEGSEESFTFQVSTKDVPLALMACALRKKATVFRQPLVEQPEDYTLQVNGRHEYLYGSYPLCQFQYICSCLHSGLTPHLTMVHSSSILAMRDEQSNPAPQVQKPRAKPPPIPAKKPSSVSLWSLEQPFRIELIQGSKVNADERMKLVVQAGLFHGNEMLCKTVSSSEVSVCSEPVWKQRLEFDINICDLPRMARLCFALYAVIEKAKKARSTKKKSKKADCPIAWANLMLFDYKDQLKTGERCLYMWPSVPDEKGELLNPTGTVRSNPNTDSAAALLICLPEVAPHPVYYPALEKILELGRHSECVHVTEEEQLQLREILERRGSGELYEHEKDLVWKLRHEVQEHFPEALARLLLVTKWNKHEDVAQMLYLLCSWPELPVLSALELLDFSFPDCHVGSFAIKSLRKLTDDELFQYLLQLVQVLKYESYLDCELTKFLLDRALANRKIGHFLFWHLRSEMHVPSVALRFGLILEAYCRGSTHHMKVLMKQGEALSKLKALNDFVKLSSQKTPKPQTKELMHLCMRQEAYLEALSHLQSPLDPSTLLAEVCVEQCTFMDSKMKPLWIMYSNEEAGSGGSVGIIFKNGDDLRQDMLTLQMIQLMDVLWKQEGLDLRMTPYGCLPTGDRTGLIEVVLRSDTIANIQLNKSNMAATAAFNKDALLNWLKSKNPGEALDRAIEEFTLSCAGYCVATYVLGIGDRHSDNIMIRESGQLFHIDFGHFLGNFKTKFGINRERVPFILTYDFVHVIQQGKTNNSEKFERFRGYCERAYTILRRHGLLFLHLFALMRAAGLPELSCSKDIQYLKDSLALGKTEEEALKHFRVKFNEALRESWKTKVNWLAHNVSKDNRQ
Chain of PI3Kδ (p110δ/p85α) Recombinant Human Protein (P27986 whole entry partner): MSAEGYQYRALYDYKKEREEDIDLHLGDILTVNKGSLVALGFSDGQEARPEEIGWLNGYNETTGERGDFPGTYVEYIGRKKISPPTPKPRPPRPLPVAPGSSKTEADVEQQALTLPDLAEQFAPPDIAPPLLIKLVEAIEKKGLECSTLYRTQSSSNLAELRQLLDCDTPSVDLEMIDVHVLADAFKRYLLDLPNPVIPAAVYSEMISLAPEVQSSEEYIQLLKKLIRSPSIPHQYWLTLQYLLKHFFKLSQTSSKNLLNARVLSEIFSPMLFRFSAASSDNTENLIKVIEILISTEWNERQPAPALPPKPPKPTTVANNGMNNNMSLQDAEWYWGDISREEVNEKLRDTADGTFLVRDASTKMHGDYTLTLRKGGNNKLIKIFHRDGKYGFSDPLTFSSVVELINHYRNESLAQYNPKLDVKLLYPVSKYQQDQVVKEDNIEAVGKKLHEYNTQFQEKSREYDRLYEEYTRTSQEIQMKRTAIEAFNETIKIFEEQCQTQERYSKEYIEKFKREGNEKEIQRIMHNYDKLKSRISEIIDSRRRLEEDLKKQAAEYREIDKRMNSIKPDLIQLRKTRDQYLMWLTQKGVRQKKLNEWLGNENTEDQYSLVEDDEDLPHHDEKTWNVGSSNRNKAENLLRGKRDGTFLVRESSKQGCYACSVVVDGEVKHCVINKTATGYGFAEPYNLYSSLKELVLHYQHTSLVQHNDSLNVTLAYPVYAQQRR
Excerpt: as §1, with “PI3Kδ (p110δ/p85α)” for “PI3Kγ (p110γ)”, “Eurofins (St Charles, Mo.).” for “Life technology (Grand Island, N.Y.).”
as §2, with “PI3Kδ” for “PI3Kγ”, “3.4” for “13”, “PI3Kδ.” for “PI3Kγ.”, “(PerkinElmer).” for “(Perkin-Elmer).”

[3] = tested on: Phosphorylated Ribosomal Protein S6 (RPS6) in THP-1 cells; test: THP-1 RPS6 ELISA Assay; type: cell-based, Human; settings: THP-1 cells, 10 nM MCP-1, read-out: PI3Kγ_THP1_RPS6_ELISA IC50
How it was run: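 Cells serum-starved overnight, pre-incubated with compounds 2 h at 37° C, then stimulated with 10 nM MCP-1 for 15 min. Lysates assayed for phospho-RPS6 by ELISA read at 450 nm. IC50 from percent inhibition vs log concentration curve fit.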

IC50 ([1]; Table A4): < 100 nM
Compound: Cc1ccc(C(O)(C(N)=O)C(F)(F)F)cc1-c1cnc(N)c(C2CC(C(=O)NC(C)C)C2)n1 (single isomer, unassigned) [Example 111, 3-(3-Amino-6-(5-(3-amino-1,1,1-trifluoro-2-hydroxy-3-oxopropan-2-yl)-2-methylphenyl)pyrazin-2-yl)-N-isopropylcyclobutane-1-carboxamide]

IC50 ([1]; Table A4): < 500 nM
IC50 ([2]; Table A4): < 500 nM
Compound: Cc1ccc(C(O)(C(N)=O)C(F)(F)F)cc1-c1cnc(N)c(C2CC(C(=O)NC(C)C)C2)n1 (single isomer, unassigned) [Example 110, 3-(3-Amino-6-(5-(3-amino-1,1,1-trifluoro-2-hydroxy-3-oxopropan-2-yl)-2-methylphenyl)pyrazin-2-yl)-N-isopropylcyclobutane-1-carboxamide]

IC50 ([1]; Table A4): < 100 nM
IC50 ([2]; Table A4): < 500 nM
Compound: CCOC(=O)C1CC(c2nc(-c3cc(C(O)(C(N)=O)C(F)(F)F)ccc3C)cnc2N)C1 (single isomer, unassigned) [Example 109, Ethyl 3-(3-amino-6-(5-(3-amino-1,1,1-trifluoro-2-hydroxy-3-oxopropan-2-yl)-2-methylphenyl)pyrazin-2-yl)cyclobutane-1-carboxylate]

IC50 ([1]; Table A4): < 500 nM
IC50 ([2]; Table A4): < 2000 nM
Compound: CCOC(=O)C1CC(c2nc(-c3cc(C(O)(C(N)=O)C(F)(F)F)ccc3C)cnc2N)C1 (single isomer, unassigned) [Example 108, Ethyl 3-(3-amino-6-(5-(3-amino-1,1,1-trifluoro-2-hydroxy-3-oxopropan-2-yl)-2-methylphenyl)pyrazin-2-yl)cyclobutane-1-carboxylate]

IC50 ([2]; Table A4): < 500 nM
IC50 ([3]; Homo sapiens, Table A4): > 1000 nM
Compound: Cc1ccc(C(O)(C(N)=O)C(F)(F)F)cc1-c1cnc(N)c(N2CCN(c3cccc(C(F)(F)F)c3)CC2)n1 (centres unmarked) [Example 121, 2-(3-(5-amino-6-(4-(3-(trifluoromethyl)phenyl)piperazin-1-yl)pyrazin-2-yl)-4-methylphenyl)-3,3,3-trifluoro-2-hydroxypropanamide trifluoroacetate]

IC50 ([1]; Table A4): < 100 nM
IC50 ([2]; Table A4): < 2000 nM
IC50 ([3]; Homo sapiens, Table A4): < 1000 nM
Compound: Cc1ccc(C(O)(C(N)=O)C(F)(F)F)cc1-c1cnc(N)c(C2CN(S(=O)(=O)c3cnn(C)c3)C2)n1 (single isomer, unassigned) [Example 107, 2-(3-(5-Amino-6-(1-((1-methyl-1H-pyrazol-4-yl)sulfonyl)azetidin-3-yl)pyrazin-2-yl)-4-methylphenyl)-3,3,3-trifluoro-2-hydroxypropanamide, trifluoroacetate salt]

IC50 ([2]; Table A4): < 500 nM
IC50 ([3]; Homo sapiens, Table A4, cells given with + symbol): < 100 nM
Compound: Cc1ccc(C(O)(C(N)=O)C(F)(F)F)cc1-c1cnc(N)c(N2CCN(c3ccccc3)CC2)n1 (centres unmarked) [Example 116, 2-(3-(5-amino-6-(4-phenylpiperazin-1-yl)pyrazin-2-yl)-4-methylphenyl)-3,3,3-trifluoro-2-hydroxypropanamide trifluoroacetate]

IC50 ([2]; Table A4): < 500 nM
IC50 ([3]; Homo sapiens, Table A4): < 500 nM
Compound: Cc1ccc(C(O)(C(N)=O)C(F)(F)F)cc1-c1cnc(N)c(N2CCN(C(C)(C)C)C(=O)C2)n1 (centres unmarked) [Example 113, 2-(3-(5-amino-6-(4-tert-butyl-3-oxopiperazin-1-yl)pyrazin-2-yl)-4-methylphenyl)-3,3,3-trifluoro-2-hydroxypropanamide trifluoroacetate]

IC50 ([2]; Table A4): < 500 nM
IC50 ([3]; Homo sapiens, Table A4): < 500 nM
Compound: Cc1ccc(C(O)(C(N)=O)C(F)(F)F)cc1-c1cnc(N)c(N2CCN(C3CC3)C(=O)C2)n1 (centres unmarked) [Example 112, 2-(3-(5-amino-6-(4-cyclopropyl-3-oxopiperazin-1-yl)pyrazin-2-yl)-4-methylphenyl)-3,3,3-trifluoro-2-hydroxypropanamide trifluoroacetate]

IC50 ([2]; Table A4): < 500 nM
IC50 ([3]; Homo sapiens, Table A4): < 1000 nM
Compound: CCOc1ccccc1N1CCN(c2nc(-c3cc(C(O)(C(N)=O)C(F)(F)F)ccc3C)cnc2N)CC1 (centres unmarked) [Example 129, 2-(3-(5-amino-6-(4-(2-ethoxyphenyl)piperazin-1-yl)pyrazin-2-yl)-4-methylphenyl)-3,3,3-trifluoro-2-hydroxypropanamide trifluoroacetate]

The next lines start with the compound.

Compound: 2-(3-(5-amino-6-(2-methylthiazol-5-yl)pyrazin-2-yl)-4-methylphenyl)-3,3,3-trifluoro-2-hydroxypropanamide trifluoroacetate [Example 72]
IC50 ([1]; Table A3): < 100 nM
IC50 ([2]; Table A3): < 100 nM
IC50 ([3]; Table A3): < 100 nM

Compound: Cc1ccc(C(O)(C(N)=O)C(F)(F)F)cc1-c1cnc(N)c(N2CC(=O)N(c3ccc(O)cc3)[C@@H](CO)C2)n1 (stereo partly drawn) [Example 124, 2-(3-(5-amino-6-((R)-3-(hydroxymethyl)-4-(4-hydroxyphenyl)-5-oxopiperazin-1-yl)pyrazin-2-yl)-4-methylphenyl)-3,3,3-trifluoro-2-hydroxypropanamide trifluoroacetate]
IC50 ([2]; Table A4): < 500 nM
IC50 ([3]; Homo sapiens, Table A4): < 1000 nM

Compound: CCCc1nc(-c2cc(C(O)(C(N)=O)C(F)(F)F)ccc2C)cnc1N (centres unmarked) [Example 45, 2-(3-(5-amino-6-propylpyrazin-2-yl)-4-methylphenyl)-3,3,3-trifluoro-2-hydroxypropanamide]
IC50 ([2]; Table A2): < 500 nM
IC50 ([3]; Homo sapiens, Table A2): < 500 nM

Compound: Cc1ccc(C(O)(C(=O)N(C)C)C(F)(F)F)cc1-c1cnc(N)c(-n2cncn2)n1 (centres unmarked) [Example 95, 2-(3-(5-Amino-6-(1H-1,2,4-triazol-1-yl)pyrazin-2-yl)-4-methylphenyl)-3,3,3-trifluoro-2-hydroxy-N,N-dimethylpropanamide trifluoroacetate]
IC50 ([1]; Table A3): < 500 nM
IC50 ([2]; Table A3): < 500 nM

Compound: Cc1ccc(C(O)(CNC=O)C(F)(F)F)cc1-c1cnc(N)c(-c2cn[nH]c2)n1 (centres unmarked) [Example 103, N-(2-(3-(5-amino-6-(1H-pyrazol-4-yl)pyrazin-2-yl)-4-methylphenyl)-3,3,3-trifluoro-2-hydroxypropyl)formamide trifluoroacetate]
IC50 ([2]; Table A3): < 500 nM
IC50 ([3]; Homo sapiens, Table A3): < 500 nM

Compound: Cc1ccc(C(O)(C(N)=O)C(F)(F)F)cc1-c1cnc(N)c(-c2cncnc2)n1 (centres unmarked) [Example 81, 2-(3-(5-amino-6-(pyrimidin-5-yl)pyrazin-2-yl)-4-methylphenyl)-3,3,3-trifluoro-2-hydroxypropanamide trifluoroacetate]
IC50 ([2]; Table A3): < 500 nM
IC50 ([3]; Homo sapiens, Table A3): < 500 nM

Compound: Cc1ccc(C(O)(C(N)=O)C(F)(F)F)cc1-c1cnc(N)c(-c2cccc(C(C)C)c2)n1 (centres unmarked) [Example 90, 2-(3-(5-amino-6-(3-isopropylphenyl)pyrazin-2-yl)-4-methylphenyl)-3,3,3-trifluoro-2-hydroxypropanamide trifluoroacetate]
IC50 ([2]; Table A3): < 500 nM
IC50 ([3]; Homo sapiens, Table A3): < 500 nM
